Values quoted from earlier work in patent publication US6420552B1, “Syntheses of 4-alkyl chromogenic glycosides and 7-alkyl chromogenic glycosides of N-acetylneuraminic acids” (priority 1999, dated 2002).

Legend:
[1] = tested on: neuraminidase activity of influenza types A and B; conditions: substrate activity, result in words
[2] = tested on: neuraminidase activity of parainfluenza types 1 and 2; conditions: substrate activity, result in words
[3] = tested on: respiratory syncytial adenovirus; conditions: substrate activity, result in words
[4] = biological target: neuraminidase from Vibrio cholerae (Vibrio cholerae serotype O1, UniProt P0C6E9); conditions: 4-methylumbelliferyl α ketosides
Sequence of neuraminidase from Vibrio cholerae (P0C6E9 25-781): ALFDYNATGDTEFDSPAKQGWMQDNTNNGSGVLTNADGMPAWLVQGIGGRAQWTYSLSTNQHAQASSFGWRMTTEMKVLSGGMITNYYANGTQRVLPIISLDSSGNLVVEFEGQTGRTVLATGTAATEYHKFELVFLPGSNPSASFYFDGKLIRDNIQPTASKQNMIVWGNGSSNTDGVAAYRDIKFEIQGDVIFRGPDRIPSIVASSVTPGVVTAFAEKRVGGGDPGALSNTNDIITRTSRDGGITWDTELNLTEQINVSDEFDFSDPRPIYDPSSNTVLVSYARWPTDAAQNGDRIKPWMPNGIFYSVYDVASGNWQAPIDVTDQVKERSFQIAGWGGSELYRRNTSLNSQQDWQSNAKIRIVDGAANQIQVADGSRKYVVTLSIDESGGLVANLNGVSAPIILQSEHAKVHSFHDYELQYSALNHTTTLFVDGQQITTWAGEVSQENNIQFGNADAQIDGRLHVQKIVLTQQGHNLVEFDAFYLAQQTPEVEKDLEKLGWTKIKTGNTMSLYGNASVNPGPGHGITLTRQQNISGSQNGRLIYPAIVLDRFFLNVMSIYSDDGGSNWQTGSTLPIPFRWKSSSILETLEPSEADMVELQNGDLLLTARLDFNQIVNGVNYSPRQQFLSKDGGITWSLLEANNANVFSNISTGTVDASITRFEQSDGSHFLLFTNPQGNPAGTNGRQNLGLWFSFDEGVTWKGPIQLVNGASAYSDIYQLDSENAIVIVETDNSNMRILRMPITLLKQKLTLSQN

Compound | hydrolysis / colour development by neuraminidase activity of influenza types A and B [1] | hydrolysis / colour development by neuraminidase activity of parainfluenza types 1 and 2 [2] | hydrolysis by respiratory syncytial adenovirus [3] | glycosidic hydrolysis by neuraminidase from Vibrio cholerae [4]
5-bromo-3-indolyl 4-O-methyl Neu5Ac ketoside | acted upon | acted upon | not at all | –
CC(=O)N[C@@H]1CCC(O)(C(=O)O)O[C@H]1C[C@H](O)CO (stereo partly shown) [4,7-dideoxy Neu5Ac] | – | – | – | significantly slowed
COC1CC(Oc2c[nH]c3ccc(Br)cc23)(C(=O)O)OC(C(OC)C(O)CO)C1NC(C)=O (stereo not shown) [5-bromo-3-indolyl 4,7-di-O-methyl Neu5Ac ketoside] | selectively hydrolyzed | – | – | –
CC(=O)N[C@H]1[C@H]([C@@H](O)[C@@H](O)CO)OC(O)(C(=O)O)C[C@@H]1O (stereo partly drawn) [7,8-(bis)epi Neu5Ac] | – | – | – | significantly slowed
CC(=O)N[C@H]1[C@H](C[C@H](O)CO)OC(O)(C(=O)O)C[C@@H]1O (stereo partly shown) [7-deoxy Neu5Ac] | – | – | – | significantly slowed
